Measured values published in paper PMC12713470, “Design and Synthesis of Novel Chalcone Derivatives Targeting Bladder and Liver Cancer: Cytotoxicity Evaluation and Preliminary Mechanistic Studies” (ACS Omega, 2025).

Assays:
T24 cells [1] = test: Cell cycle progression (propidium iodide flow cytometry), T24; type: cell-based, human; conditions: after treatment, 48 h
Description: Cells were seeded in 12-well plates at a density of 1.0 × 10^5 cells per well and incubated for 24 h to allow adhesion. Following this initial incubation, the cells were treated with the chalcone at concentrations of 0.92, 2.15, 4.62, and 9.25 μM for an additional 48 h. After the treatment, the cells were washed, trypsinized, and collected along with the culture supernatant into Falcon tubes. The samples were then centrifuged at 1000 rpm for 10 min. After centrifugation, the supernatant was discarded, and the cell pellets were resuspended in 200 μL of propidium iodide staining solution before being transferred to cytometry tubes. These tubes were incubated on ice, in the dark, for 30 min. Flow cytometric analysis was performed on 20,000 events using a BD FACScalibur flow cytometer (BD Biosciences, Franklin Lakes, NJ, USA), and the data were analyzed using FlowJo software.

[2] = system: T24: human urinary bladder carcinoma cells; test: MTT cytotoxicity assay on T24 cells; type: cell-based
Description: (§1) Cytotoxicity was determined using the MTT colorimetric assay, and half-maximal inhibitory concentrations (IC50, μM) were obtained for all cell lines (Table ). The selectivity index (SI) was calculated as the ratio of IC50 MRC-5/IC50 cancer cell line. Doxorubicin was employed as a positive control due to its broad-spectrum clinical use, either alone or in combination, against hepatocellular, ovarian, cervical, and bladder cancers. −
(§2) In vitro biological assays were performed by using five human cell lines for cytotoxicity evaluation. HepG2 cells (ATCC HB-8065), derived from a human hepatocellular carcinoma of the liver (person), were cultured in Dulbecco’s modified Eagle medium (DMEM) supplemented with 5% fetal bovine serum (FBS), penicillin/streptomycin (100 IU/mL), and amphotericin B (5 μg/mL), in a humidified incubator with 5% CO2 at 37 °C. These cells were plated at a concentration of 2.0 × 10^4 cells/well in 96-well microplates. MRC-5 cells (ATCC CCL-171), derived from human lung fibroblasts of a […] fetus, were cultured under the same conditions and plated at 1.0 × 10^4 cells/well. T24 cells (ATCC HTB-4), established from a transitional cell carcinoma of the bladder (person), were also cultured under identical conditions and plated at a density of 1.0 × 10^4 cells/well. TOV-21G cells (ATCC CRL-11730), derived from a primary malignant ovarian adenocarcinoma (person), were maintained in DMEM with the same supplementation and environmental conditions and plated at 5.0 × 10^4 cells/well. […]
(§3) HeLa, HepG2, MRC-5, T24, and TOV-21G cells were suspended in a culture medium supplemented with 5% fetal bovine serum (FBS) and seeded into 96-well microplates. The plates were incubated under a humidified atmosphere containing 5% CO2 at 37 °C for 24 h, allowing for adherence and monolayer formation. , Eight serial dilutions of the test samples, previously solubilized in dimethyl sulfoxide (DMSO), were prepared in DMEM supplemented with 1% FBS, covering a concentration range from […], and the results were converted to […]. The volume of DMSO in each well was limited to a final concentration not exceeding 2%. Following monolayer formation, the culture medium was aspirated and replaced with 100 μL of the diluted test samples and 100 μL of DMEM containing 1% FBS. The plates were then incubated under the same atmospheric and temperature conditions.
(§4) Two hours prior to end point reading, 20 μL of MTT [3-(4,5-dimethylthiazol-2-yl)-2,5-diphenyltetrazolium bromide] solution (1.0 mg/mL in sterile phosphate-buffered saline, Sigma-Aldrich) was added to each well. The incubation period following sample addition varied according to the cell line: 24 h for MRC-5, 48 h for T24, and 72 h for HeLa, HepG2, and TOV-21G. After the appropriate incubation, absorbance was measured by using a VICTOR X3 microplate reader (PerkinElmer), and data were processed with WorkOut 2.5 software at a wavelength of 490 nm. Formazan formation, resulting from the MTT reduction by metabolically active cells, was used as an indirect measure of cell viability. The percentage of cytotoxicity was calculated using the equation % cytotoxicity = [(A – B)/A] × 100, where A is the optical density (OD4 9 0) of untreated control cells and B is the OD4 9 0 of treated cells.
(§5) Cytotoxicity was expressed as the 50% cytotoxic concentration (CC5 0), representing the concentration of sample required to reduce cell viability by 50% relative to that of the untreated control.

HepG2 cells = test: Morphology assay, HepG2; type: cell-based, human; conditions: 2.15-18.50 μM, 48 h
Description: For the morphology assay, 2.0 × 10^5 cells were cultured in 12-well plates for 24 h to allow adherence. After this period, the cells were treated with the chalcone at concentrations of 2.15, 4.62, 9.25, and 18.50 μM for 48 h. After treatment, the cells were examined and photographed under an inverted microscope at 200× magnification.

T24 cells [3] = test: Cell migration (wound), T24; type: cell-based, human; conditions: highest concentration tested, 48 h
Description: The cells were cultured in DMEM (Sigma-Aldrich, St. Louis, USA) and supplemented with 10% fetal bovine serum (Cultilab Ltda., Campinas, Brazil) and antibiotics (amphotericin). They were incubated at 37 °C in a humidified atmosphere with 5% CO2. Control cell groups, which were not exposed to the compound, were included in the experiments and were conducted in triplicate. The chalcone was dissolved in dimethyl sulfoxide (DMSO) for the assays.
Cells were seeded in 24-well plates at a density of 1.0 × 10^5 cells per well and incubated for 24 h to allow attachment. After this incubation, a sterile 200 μL pipet tip was used to scrape the cell monolayer, creating a wound. The initial wound area was photographed using an inverted microscope equipped with a camera. Following this, the cells were washed with Hanks’ solution and treated with the glycosylated chalcone at concentrations of 2.15, 4.62, 9.25, and 18.50 μM for 48 h. At the end of the treatment period, the cells were photographed again, and migration into the wound area was assessed. The percentage of cell migration was quantified using ImageJ and GraphPad Prism software.

[4] = system: HeLa: human cervical adenocarcinoma cells; test: MTT cytotoxicity assay on HeLa cells; type: cell-based
Description: as §1, §2, §3, §4, §5

CCCc1cc(/C=C/C(=O)c2ccc(C)cc2)c(OC)c(OC)c1 [compound 3, (E)-3-(2,3-Dimethoxy-5-propylphenyl)-1-(p-tolyl)-prop-2-en-1-one]
cell cycle distribution, T24 (T24 cells [1]): no difference was observed after treatment
IC50 ([2]; Homo sapiens, T-24, MTT, 48 h incubation, n = 3, NA: noncytotoxic at the concentrations tested): 5 ± 1.6 µM
SI (T24) ([2]; IC50 MRC-5/IC50 T24): 11.1
potency against T24 relative to hit 1 ([2]; ratio of IC50 values, 1 vs 3): more than 32 times
morphology, HepG2 (HepG2 cells): reduction in cell density was observed
cell migration, T24 (T24 cells [3]): significant decrease was observed
IC50 ([4]; Homo sapiens, HeLa, MTT, 72 h incubation, n = 3, NA: noncytotoxic at the concentrations tested): 5.9 ± 1.6 µM
SI (HeLa) ([4]; IC50 MRC-5/IC50 HeLa): 9.3
